How the values were obtained:
HeLa [1] = assay: Cell cycle arrest in human HeLa cells assessed as accumulation of cells at G0/G1 phase at 0.2 uM measured after 24 hrs by PI staining based flow cytometric analysis (reference value: 54.7 %); type: functional
HCT-116 [2] = assay: Upregulation of CHOP expression in human HCT-116 cells at 0.2 to 0.4 uM measured after 48 hrs by Western blot analysis; type: functional, cell-based; conditions: dose 0.2-0.4 µM
HCT-116 [3] = assay: Upregulation of phosphorylated eIF2alpha expression in human HCT-116 cells at 0.2 to 0.4 uM measured after 48 hrs by Western blot analysis; type: functional, cell-based; conditions: dose 0.2-0.4 µM
[4] = Toxicity in female BALB/c nude mouse xenografted with human HeLa cells assessed as animal survival at 20 mg/kg, ip administered as liposome formulation once daily for 13 days; type: organism-based; conditions: in vivo, 312 h, time 13 day
HeLa [5] = assay: Induction of ROS production in human HeLa cells assessed as fold change at 0.2 to 0.4 uM incubated for 24 hrs by DCFH-DA probe based flow cytometric analysis; type: functional; conditions: dose 0.2-0.4 µM
HeLa [6] = assay: Cytotoxicity against human HeLa cells assessed as inhibition of cell growth incubated for 72 hrs by MTT assay; type: functional, cell-based
MKN-45 = assay: Cytotoxicity against human MKN-45 cells assessed as inhibition of cell growth at 10 uM measured after 72 hrs by MTT assay relative to control; type: functional
MCF7 = assay: Cytotoxicity against human MCF7 cells assessed as inhibition of cell growth incubated for 72 hrs by MTT assay; type: functional, cell-based; conditions: MCF7, 72 h
HeLa [7] = assay: Upregulation of CHOP expression in human HeLa cells at 0.2 to 0.4 uM measured after 48 hrs by Western blot analysis; type: functional, cell-based; conditions: dose 0.2-0.4 µM
HCT-116 [8] = assay: Cytotoxicity against human HCT-116 cells assessed as inhibition of cell growth incubated for 72 hrs by MTT assay; type: functional, cell-based; conditions: HCT-116, 72 h
[9] = Toxicity in female BALB/c nude mouse xenografted with human HeLa cells assessed as body weight loss at 5 to 20 mg/kg, ip administered as liposome formulation once daily for 13 days; type: organism-based; conditions: in vivo, 312 h, dose 5-20 mg/kg, time 13 day
HCT-116 [10] = assay: Induction of apoptosis in human HCT-116 cells assessed as early apoptotic cells at 0.4 uM incubated for 24 hrs by Annexin V-FITC/PI staining based analysis (reference value: 7.40 %); type: functional
U-87 MG = assay: Cytotoxicity against human U-87 MG cells assessed as survival rate at 10 uM measured after 72 hrs by MTT assay relative to control; type: functional, U-87MG ATCC; conditions: read-out: Survival
HCT-116 [11] = assay: Cytotoxicity against human HCT-116 cells assessed as inhibition of cell growth at 10 uM measured after 72 hrs by MTT assay relative to control; type: functional
HeLa [12] = assay: Antitumor activity against human HeLa cells xenografted in female BALB/c nude mouse assessed as reduction in tumor cell volume at 20 mg/kg, ip administered as liposome formulation once daily for 13 days relative to control; type: functional; parameters: scale not given: the % may be the effect or the level left; conditions: time 13 day
[13] = Selectivity index, ratio of IC50 for HHL-5 cells to IC50 for human HeLa cells; type: toxicity; conditions: HHL-5 cells and HeLa cells, pooled result: one value given for 6 cell lines, strains, targets or settings, read-out: Ratio IC50
MGC-803 = assay: Cytotoxicity against human MGC-803 cells assessed as inhibition of cell growth at 10 uM measured after 72 hrs by MTT assay relative to control; type: functional
HeLa [14] = assay: Antitumor activity against human HeLa cells xenografted in female BALB/c nude mouse assessed as reduction in tumor cell weight at 20 mg/kg, ip administered as liposome formulation once daily for 13 days relative to control; type: functional; parameters: scale not given: the % may be the effect or the level left; conditions: time 13 day
HeLa [15] = assay: Cell cycle arrest in human HeLa cells assessed as accumulation of cells at G2/M phase at 0.4 uM measured after 24 hrs by PI staining based flow cytometric analysis (reference value: 22.8 %); type: functional
HCT-116 [16] = assay: Upregulation of phosphorylated PERK expression in human HCT-116 cells at 0.2 to 0.4 uM measured after 48 hrs by Western blot analysis; type: functional, cell-based; conditions: dose 0.2-0.4 µM
HeLa [17] = assay: Induction of apoptosis in human HeLa cells assessed as viable cells at 0.2 uM incubated for 24 hrs by Annexin V-FITC/PI staining based flow cytometric analysis (reference value: 90.6 %); type: functional; conditions: read-out: Activity
HCT-116 [18] = assay: Induction of apoptosis in human HCT-116 cells assessed as early apoptotic cells at 0.2 uM incubated for 24 hrs by Annexin V-FITC/PI staining based analysis (reference value: 7.40 %); type: functional
HCT-116 [19] = assay: Cell cycle arrest in human HCT-116 cells assessed as accumulation of cells at G2/M phase at 0.2 uM measured after 24 hrs by PI staining based flow cytometric analysis (reference value: 26.4 %); type: functional
HeLa [20] = assay: Cell cycle arrest in human HeLa cells assessed as accumulation of cells at G0/G1 phase at 0.4 uM measured after 24 hrs by PI staining based flow cytometric analysis (reference value: 54.7 %); type: functional
HCT-116 [21] = assay: Cytotoxicity against human HCT-116 cells assessed as survival rate at 10 uM measured after 72 hrs by MTT assay relative to control; type: functional; conditions: read-out: Survival

COc1ccc(C2=CC(=O)O/C2=C\c2ccc(O)cc2)cc1
Activity (HeLa [1]): 18.8% | Activity (HCT-116 [2]): Active; Compound Impacts Endoplasmic Reticulum Stress Related Perk-Eif2Alpha-Chop Signalling Pathway | Activity (HCT-116 [3]): Active; Compound Impacts Endoplasmic Reticulum Stress Related Perk-Eif2Alpha-Chop Signalling Pathway | Activity [4]: Non-toxic | fold change (FC) (HeLa [5]): >4 | IC50 (HeLa [6]): 200 nM | inhibition at 10 µM (MKN-45): > 50% | IC50 (MCF7): 1000 nM | Activity (HeLa [7]): Active; Compound Impacts Endoplasmic Reticulum Stress Related Perk-Eif2Alpha-Chop Signalling Pathway | IC50 (HCT-116 [8]): 200 nM | Activity [9]: Non-toxic | Activity (HCT-116 [10]): 8.33% | viability at 10 µM (U-87 MG): 12.4% | inhibition at 10 µM (HCT-116 [11]): > 50% | Activity (HeLa [12]): >60% | selectivity ratio [13]: 2.6 | inhibition at 10 µM (MGC-803): > 50% | Activity (HeLa [14]): 50% | Activity (HeLa [15]): 71.1% | Activity (HCT-116 [16]): Active; Compound Impacts Endoplasmic Reticulum Stress Related Perk-Eif2Alpha-Chop Signalling Pathway | viability at 0.2 µM (HeLa [17]): 83.2% | Activity (HCT-116 [18]): 3.69% | Activity (HCT-116 [19]): 22.8% | Activity (HeLa [20]): 8.71% | viability at 10 µM (HCT-116 [21]): 19.7%

— ChEMBL document CHEMBL6078667, “Synthesis, Biological Evaluation, and Mechanistic Insights of Rubrolide Analogues as Antitumor Agents” (J Nat Prod, 2024)
